Where “and” joins values, the source holds several entries; their conditions need not be identical. Equal entries are not always repeated. Inconclusive results and toxic doses are left out.
System: BDF1 mice, P388 leukemia ip, median survival T/C
Experiment: NCI In Vivo Anticancer Drug Screen. Data for tumor model P388 Leukemia (intraperitoneal) in B6D2F1 (BDF1) mice
Conditions: endpoint: median survival time, higher = longer survival
Summary of the method: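 Survival ratio, drug arm over vehicle arm, in mice with a transplanted tumour.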

[1] = dose: 25.0 mg/kg/injection, schedule: Q01DX009 (ip), vehicle: saline
[2] = dose: 50.0 mg/kg/injection, schedule: Q01DX009 (ip), vehicle: saline
[3] = dose: 100.0 mg/kg/injection, schedule: Q01DX009 (ip), vehicle: saline
[4] = dose: 100.0 mg/kg/injection, schedule: Q04DX003 (ip), vehicle: saline
[5] = dose: 50.0 mg/kg/injection, schedule: Q01DX009 (ip), vehicle: saline with Tween-80
[6] = dose: 100.0 mg/kg/injection, schedule: Q01DX009 (ip), vehicle: saline with Tween-80
[7] = dose: 100.0 mg/kg/injection, schedule: Q04DX003 (ip), vehicle: saline with Tween-80
[8] = dose: 200.0 mg/kg/injection, schedule: Q04DX003 (ip), vehicle: saline with Tween-80
[9] = dose: 200.0 mg/kg/injection, schedule: Q01DX009 (ip), vehicle: Klucel (hydroxypropylcellulose) (HPC)
[10] = dose: 200.0 mg/kg/injection, schedule: Q01DX009 (ip), vehicle: saline
[11] = dose: 400.0 mg/kg/injection, schedule: Q01DX009 (ip), vehicle: saline

SMILES: NNC(=O)c1ccccn1
- T/C [1]: 92 % of control
- T/C [2]: 100 % of control
- T/C [3]: 100 % of control
- T/C [4]: 88 % of control

SMILES: COC1/C=C/OC2(C)Oc3c(C)c(O)c4c(O)c5c(c(O)c4c3C2=O)CN(C)C(=N5)/C(C)=C\C=C\C(C)C(O)C(C)C(O)C(C)C(OC(C)=O)C1C (stereo unspecified)
- T/C (dose: 100.0 mg/kg/injection, schedule: Q04DX002 (ip), vehicle: saline with Tween-80): 97 % of control
- T/C (dose: 200.0 mg/kg/injection, schedule: Q04DX002 (ip), vehicle: saline with Tween-80): 97 % of control
- T/C (dose: 400.0 mg/kg/injection, schedule: Q04DX002 (ip), vehicle: saline with Tween-80): 116 % of control

SMILES: COc1cc(Nc2ncnc(N)c2[N+](=O)[O-])cc(OC)c1OC
- T/C (dose: 100.0 mg/kg/injection, schedule: Q01DX001 (ip), vehicle: saline with Tween-80): 87 % of control
- T/C (dose: 400.0 mg/kg/injection, schedule: Q01DX001 (ip), vehicle: saline with Tween-80): 87 % of control

SMILES: O=C1c2ccccc2C(=O)N1CC(O)CCl (stereo unspecified)
- T/C [5]: 104 % of control
- T/C (dose: 50.0 mg/kg/injection, schedule: Q04DX003 (ip), vehicle: saline with Tween-80): 100 % of control
- T/C [6]: 112 % of control
- T/C [7]: 104 % of control
- T/C (dose: 200.0 mg/kg/injection, schedule: Q01DX009 (ip), vehicle: saline with Tween-80): 88 % of control
- T/C [8]: 108 % of control

SMILES: COc1c(C)cc(Br)c2c1C(CCN(C)S(=O)(=O)Cc1ccccc1)CCC2 (stereo unspecified)
- T/C (dose: 100.0 mg/kg/injection, schedule: Q01DX009 (ip), vehicle: Klucel (hydroxypropylcellulose) (HPC)): 100 % of control
- T/C [9]: 110 % of control
- T/C (dose: 400.0 mg/kg/injection, schedule: Q01DX009 (ip), vehicle: Klucel (hydroxypropylcellulose) (HPC)): 110 % of control

SMILES: CNC(=N)c1ccc(NC(=N)c2ccc(NC(=N)c3ccc(NC(=O)Nc4ccc(C(=N)Nc5ccc(C(=N)Nc6ccc(C(=N)NC)cc6)cc5)cc4)cc3)cc2)cc1
- T/C (dose: 12.5 mg/kg/injection, schedule: Q04DX003 (ip), vehicle: saline with Tween-80): 150 % of control
- T/C (dose: 19.0 mg/kg/injection, schedule: Q04DX003 (ip), vehicle: saline with Tween-80): 162 % of control and 186 % of control
- T/C (dose: 25.0 mg/kg/injection, schedule: Q01DX009 (ip), vehicle: saline with Tween-80): 165 % of control and 180 % of control
- T/C (dose: 25.0 mg/kg/injection, schedule: Q04DX003 (ip), vehicle: saline with Tween-80): 163 % of control
- T/C (dose: 29.0 mg/kg/injection, schedule: Q04DX003 (ip), vehicle: saline with Tween-80): 272 % of control and 172 % of control
- T/C (dose: 44.0 mg/kg/injection, schedule: Q04DX003 (ip), vehicle: saline with Tween-80): 231 % of control and 195 % of control
- T/C [5]: 230 % of control
- T/C (dose: 66.0 mg/kg/injection, schedule: Q04DX003 (ip), vehicle: saline with Tween-80): 200 % of control
- T/C (dose: 67.0 mg/kg/injection, schedule: Q04DX003 (ip), vehicle: saline with Tween-80): 229 % of control and 195 % of control
- T/C [6]: 92 % of control
- T/C [7]: 250 % of control and 222 % of control

SMILES: NC(N)=NO
- T/C (dose: 9.37 mg/kg/injection, schedule: Q01DX009 (ip), vehicle: saline): 91 % of control
- T/C (dose: 9.38 mg/kg/injection, schedule: Q01DX009 (ip), vehicle: saline): 90 % of control
- T/C (dose: 18.75 mg/kg/injection, schedule: Q01DX009 (ip), vehicle: saline): 100 % of control and 103 % of control
- T/C (dose: 37.5 mg/kg/injection, schedule: Q01DX009 (ip), vehicle: saline): 112 % of control and 115 % of control
- T/C [10]: 166 % of control and 168 % of control
- T/C (dose: 300.0 mg/kg/injection, schedule: Q01DX009 (ip), vehicle: saline): 158 % of control and 163 % of control
- T/C [11]: 195 % of control and 198 % of control

SMILES: CC(=O)OCc1cc2cc(O)ccc2nc1C
- T/C [1]: 98 % of control
- T/C [2]: 107 % of control
- T/C (dose: 50.0 mg/kg/injection, schedule: Q04DX003 (ip), vehicle: saline): 111 % of control
- T/C [3]: 101 % of control
- T/C [4]: 110 % of control and 115 % of control
- T/C [10]: 116 % of control
- T/C (dose: 200.0 mg/kg/injection, schedule: Q04DX003 (ip), vehicle: saline): 92 % of control and 110 % of control
- T/C [11]: 91 % of control
- T/C (dose: 400.0 mg/kg/injection, schedule: Q04DX003 (ip), vehicle: saline): 97 % of control and 104 % of control and 116 % of control

SMILES: CCOC(C)C(/C=N/NC(N)=S)=NNC(N)=S (stereo unspecified)
- T/C (dose: 25.0 mg/kg/injection, schedule: Q01DX009 (ip), vehicle: Klucel (hydroxypropylcellulose) (HPC)): 110 % of control
- T/C (dose: 50.0 mg/kg/injection, schedule: Q01DX009 (ip), vehicle: Klucel (hydroxypropylcellulose) (HPC)): 115 % of control
- T/C [5]: 107 % of control
- T/C [6]: 96 % of control
- T/C (dose: 100.0 mg/kg/injection, schedule: Q04DX003 (ip), vehicle: Klucel (hydroxypropylcellulose) (HPC)): 109 % of control
- T/C [7]: 86 % of control
- T/C (dose: 150.0 mg/kg/injection, schedule: Q01DX009 (ip), vehicle: Klucel (hydroxypropylcellulose) (HPC)): 110 % of control
- T/C [9]: 122 % of control
- T/C (dose: 200.0 mg/kg/injection, schedule: Q04DX003 (ip), vehicle: Klucel (hydroxypropylcellulose) (HPC)): 100 % of control
- T/C [8]: 91 % of control
- T/C (dose: 400.0 mg/kg/injection, schedule: Q04DX003 (ip), vehicle: Klucel (hydroxypropylcellulose) (HPC)): 104 % of control

Source: PubChem BioAssay AID328 (DTP/NCI, 2004)
